Data: patent US20060063210A1, “Histone deacetylase whole cell enzyme assay” (Methylgene, Inc., priority 2004, published 2006)

Key:
HDAC (HCT116 cells) = experiment: whole cell deacetylase (HDAC) assay in HCT116 cells with Boc-Lys(Ac)-AMC; assay type: cell-based, human
Description: (§1) Freshly trypsinized cells were dispensed into 96-well black Costar E1A/RIA plates (Corning Inc., Corning, N.Y.). Small molecule substrate Boc-Lys(Ac)-AMC (Bachem Biosciences Inc., King of Prussia, Philadelphia) was added to cell suspension with the final concentration of 300 uM. Cells were placed in 37° C. incubator with 5% CO2 for 90 minutes. Reaction was stopped by adding a freshly prepared Flouor-de-Lys™ deleveloper (Biomol, Plymouth Meeting, Philadelphia) with 1 uM TSA (Biomol) in assay buffer (25 mM Tris, HCl pH8.0, 137 mM NaCl, 2.7 mM KCl, 1 mM MgCl2) plus 1% NP-40. With the presence of 1% NP-40, both excellular and intracellular HDAC activity was measured in cultured cells altogether.
(§2) HDAC enzyme assay in intact cells was carried out as described in Example 3.
Cultured HCT116 cells were counted and distributed to each well of the 96-well plate. […] After addition of Sirtuin substrate (Fluor-de-Lys-SirT1, 500 uM) or HDAC substrate Boc-Lys(Ac)-AMC (300 uM), the cells are further incubated for an additional 2 hours. Reaction was stopped and read as described in Examples 3 and 6.

HDAC (Du145 cells) = experiment: whole cell deacetylase (HDAC) assay in Du145 cells with Boc-Lys(Ac)-AMC; assay type: cell-based, human; conditions: pre-incubated with inhibitors 16 hours, mean of at least 2 experiments
Description: as §1, §2

[1] = tested on: HDAC (human white blood cells); experiment: ex vivo inhibition of whole cell HDAC activity in human white blood cells; assay type: cell-based; conditions: 16 hours incubation
Description: Whole blood (human or mouse) was centrifuged at 2500 rpm for 10 minutes at ambient temperature in a Sorvall RT-7 centrifuge (Mandel Scientific Co., Guelph, Ontario). Plasma was removed and buffy coat was collected. Five volumes of Erythrocyte Lysis Buffer (EL) (Qiagen Canada Inc., Mississauga, Ontario) were added to buffy coat. Buffy coat was incubated on ice for 20 minutes before it was centrifuged at 400 g for 10 minutes at 4° C. Supernatant was removed and buffy coat was washed twice with EL buffer and re-centrifugation. Buffy coat was resuspended in RPMI media and cells (white blood cells) were counted with trypan blue exclusion.

HDAC (A549 cells) = experiment: whole cell deacetylase (HDAC) assay in A549 cells with Boc-Lys(Ac)-AMC; assay type: cell-based, human; conditions: pre-incubated with inhibitors 16 hours, mean of at least 2 experiments
Description: as §1, §2

HDAC (293T cells) = experiment: whole cell deacetylase (HDAC) assay in 293T cells with Boc-Lys(Ac)-AMC; assay type: cell-based, human; conditions: for IC50: pre-incubated with inhibitors 16 hours, mean of at least 2 experiments
Description: as §1, §2

HDAC (Jurkat T cells) = experiment: whole cell deacetylase (HDAC) assay in Jurkat T cells with Boc-Lys(Ac)-AMC; assay type: cell-based, human; conditions: pre-incubated with inhibitors 16 hours, mean of at least 2 experiments
Description: as §1, §2

SirT1 (HCT116 cells) = target: T1, SirT1 (HCT116 cells) (Homo sapiens, UniProt Q96EB6); experiment: whole cell sirtuin (SirT1) activity in HCT116 cells with Fluor-de-Lys-SirT1 substrate; assay type: cell-based; conditions: for inhibition of whole cell SirT1 activity: 1.5 hours pre-incubation, Fluor-de-Lys-SirT1 500 uM
T1 construct: endogenous in cells; host or cells: HCT116
T1 sequence (Q96EB6 1-747): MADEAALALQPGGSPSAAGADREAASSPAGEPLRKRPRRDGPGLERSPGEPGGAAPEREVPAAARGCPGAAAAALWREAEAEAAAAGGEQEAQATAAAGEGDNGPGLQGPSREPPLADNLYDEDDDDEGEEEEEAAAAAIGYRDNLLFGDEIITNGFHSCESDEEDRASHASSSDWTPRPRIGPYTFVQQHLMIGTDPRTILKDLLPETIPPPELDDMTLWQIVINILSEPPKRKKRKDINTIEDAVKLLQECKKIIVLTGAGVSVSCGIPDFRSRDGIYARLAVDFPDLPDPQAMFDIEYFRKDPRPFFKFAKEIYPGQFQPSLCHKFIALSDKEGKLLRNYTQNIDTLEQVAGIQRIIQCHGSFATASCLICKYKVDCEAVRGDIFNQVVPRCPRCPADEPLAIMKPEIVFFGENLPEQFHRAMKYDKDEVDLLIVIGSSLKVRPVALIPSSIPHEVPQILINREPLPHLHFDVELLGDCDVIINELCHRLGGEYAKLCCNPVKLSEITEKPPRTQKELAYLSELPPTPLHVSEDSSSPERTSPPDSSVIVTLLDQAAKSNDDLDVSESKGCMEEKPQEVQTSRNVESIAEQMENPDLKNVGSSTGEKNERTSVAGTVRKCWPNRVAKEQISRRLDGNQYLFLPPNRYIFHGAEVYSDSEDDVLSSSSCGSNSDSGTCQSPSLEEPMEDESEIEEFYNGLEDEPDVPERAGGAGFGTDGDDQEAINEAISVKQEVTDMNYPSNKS
Excerpt: Cultured cells (HCT116) were trypsinized and counted by trypan blue exclusion. Live cells (2×10^5) were distributed to each well of the 96-well plate. […] Independently, we fixed concentrations of either Fluor-de-Lys-SirT1 substrate or Fluor-de-Lys-SirT2 in whole cells and analyzed the effect of exogeneous NAD+ concentration on whole cell sirtuin activity (FIG. 7b). […] Therefore the reading was done immediately after stopping.
Cultured HCT116 cells were counted and distributed to each well of the 96-well plate. […] After addition of Sirtuin substrate (Fluor-de-Lys-SirT1, 500 uM) or HDAC substrate Boc-Lys(Ac)-AMC (300 uM), the cells are further incubated for an additional 2 hours. Reaction was stopped and read as described in Examples 3 and 6. […] This observation is consistent with our finding in Example 7 that TSA can not inhibit class III (Sirtuins) in vitro.

recombinant Sirt3 = target: T2, recombinant Sirt3 (Homo sapiens, UniProt Q9NTG7); experiment: recombinant Sirt3 enzyme assay in vitro (Fluor-de-Lys-SirT2 substrate); assay type: biochemical
T2 construct: purchased Biomol
T2 sequence (Q9NTG7 1-399): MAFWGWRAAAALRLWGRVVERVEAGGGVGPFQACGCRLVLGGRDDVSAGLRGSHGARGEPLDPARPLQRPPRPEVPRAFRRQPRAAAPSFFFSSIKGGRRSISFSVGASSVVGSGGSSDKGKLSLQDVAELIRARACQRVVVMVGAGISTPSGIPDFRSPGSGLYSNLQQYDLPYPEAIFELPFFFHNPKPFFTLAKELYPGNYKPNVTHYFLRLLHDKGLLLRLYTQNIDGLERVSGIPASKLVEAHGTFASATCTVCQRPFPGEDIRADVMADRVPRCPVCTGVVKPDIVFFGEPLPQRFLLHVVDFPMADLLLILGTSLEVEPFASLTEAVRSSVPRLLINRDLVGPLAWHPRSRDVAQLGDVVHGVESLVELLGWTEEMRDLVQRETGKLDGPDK
Excerpt: (§3) Human SirT1, 2, 3 recombinant enzymes were purchased from Biomol (Biomol, Plymouth Meeting, Philadelphia).
(§4) Reaction is read as described in Example 3.

recombinant Sirt2 = target: T3, recombinant Sirt2 (Homo sapiens, UniProt Q8IXJ6); experiment: recombinant Sirt2 enzyme assay in vitro (Fluor-de-Lys-SirT2 substrate); assay type: biochemical; conditions: for inhibition of recombinant Sirt2 in vitro: TSA up to 10 uM; for IC50: 45 minutes, read-out: IC50 against recombinant Sirt2
T3 construct: purchased Biomol
T3 sequence (Q8IXJ6 1-389): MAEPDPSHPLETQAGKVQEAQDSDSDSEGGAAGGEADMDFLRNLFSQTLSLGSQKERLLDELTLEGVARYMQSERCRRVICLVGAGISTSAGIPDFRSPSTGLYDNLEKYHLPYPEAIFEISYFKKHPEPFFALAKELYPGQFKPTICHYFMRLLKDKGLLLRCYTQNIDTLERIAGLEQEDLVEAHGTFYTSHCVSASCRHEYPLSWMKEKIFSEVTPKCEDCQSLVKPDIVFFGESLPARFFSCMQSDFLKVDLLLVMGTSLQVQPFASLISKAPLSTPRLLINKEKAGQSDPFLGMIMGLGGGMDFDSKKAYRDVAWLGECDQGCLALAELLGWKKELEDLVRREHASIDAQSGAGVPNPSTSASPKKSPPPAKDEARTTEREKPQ
Excerpt: as §3, §4

recombinant Sirt1 = target: T4, recombinant Sirt1 (Homo sapiens, UniProt Q96EB6); experiment: recombinant Sirt1 enzyme assay in vitro (Fluor-de-Lys-SirT1 substrate); assay type: biochemical; conditions: for inhibition of recombinant Sirt1 in vitro: TSA up to 10 uM
T4 construct: purchased Biomol
T4 sequence (Q96EB6 1-747): T1 sequence (Q96EB6 1-747)
Excerpt: as §3, §4

[2] = target: T5, SirT1 (mouse white blood cells) (Mus musculus, UniProt Q923E4); experiment: ex vivo whole cell Sirt1 activity in mouse white blood cells; assay type: cell-based; conditions: 90 minute incubation, 200 uM Fluor-de-Lys Sirt1
T5 construct: from tissue; host or cells: mouse white blood cells
T5 sequence (Q923E4 1-737): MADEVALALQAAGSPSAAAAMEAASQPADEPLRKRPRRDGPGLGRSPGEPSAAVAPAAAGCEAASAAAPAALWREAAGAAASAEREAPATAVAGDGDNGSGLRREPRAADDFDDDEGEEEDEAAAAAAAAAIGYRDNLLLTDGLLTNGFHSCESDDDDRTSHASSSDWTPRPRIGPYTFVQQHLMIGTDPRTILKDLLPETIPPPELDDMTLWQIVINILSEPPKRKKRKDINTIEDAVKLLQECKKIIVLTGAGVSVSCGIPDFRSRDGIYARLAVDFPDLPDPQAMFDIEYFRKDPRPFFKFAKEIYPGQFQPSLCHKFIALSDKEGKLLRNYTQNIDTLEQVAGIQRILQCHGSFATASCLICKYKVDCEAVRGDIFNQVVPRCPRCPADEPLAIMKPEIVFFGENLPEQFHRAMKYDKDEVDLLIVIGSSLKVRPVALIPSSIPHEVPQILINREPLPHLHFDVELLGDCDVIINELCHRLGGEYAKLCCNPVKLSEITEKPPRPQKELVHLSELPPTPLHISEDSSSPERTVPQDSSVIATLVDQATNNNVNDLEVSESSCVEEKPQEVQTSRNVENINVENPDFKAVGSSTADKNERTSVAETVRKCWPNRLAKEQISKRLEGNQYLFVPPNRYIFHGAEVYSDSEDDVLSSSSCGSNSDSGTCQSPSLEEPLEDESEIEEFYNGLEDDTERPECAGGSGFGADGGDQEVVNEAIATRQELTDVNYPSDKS
Description: Mouse blood was collected in heparin tubes. Erythrocytes were lysed with five volumes of Erythrocyte Lysis buffer (EL, Qiagen Canada Inc, Mississauga, Ontario). White blood cells were recovered by centrifugation (400×g for 5 min), washed and resuspended in RPMI (+10% FBS), then counted. […] After 90 minute incubation, reaction was stopped with one volume of assay buffer (50 mM Tris-Ci pH 8.0, 137 mM NaCl, 2.7 mM KCl, 1 mM MgCl2) supplemented with 1× Developer II (BioMol, Plymouth Meeting, Philadelphia) and 1% NP40.

O=C(/C=C/c1ccc(CN(CCO)CCc2c[nH]c3ccccc23)cc1)NO [LAQ-824]
IC50 (HDAC (HCT116 cells); pre-incubated with inhibitors 16 hours, mean of at least 2 experiments): 0.06 µM
IC50 (HDAC (Du145 cells)): 0.05 µM
inhibition of whole cell HDAC activity in human white blood cells [1]: dose-dependent inhibition
IC50 (HDAC (A549 cells)): 0.02 µM
IC50 (HDAC (293T cells)): 0.04 µM
IC50 (HDAC (Jurkat T cells)): 0.04 µM

NC(=O)c1ccc[n+]([C@@H]2O[C@H](COP(=O)([O-])OP(=O)(O)OC[C@H]3O[C@@H](n4cnc5c(N)ncnc54)[C@H](O)[C@@H]3O)[C@@H](O)[C@H]2O)c1 [NAD+]
effect of exogenous NAD+ on whole cell sirtuin activity (SirT1 (HCT116 cells); HCT116 cells, fixed Fluor-de-Lys-SirT1 or Fluor-de-Lys-SirT2 substrate): no effect on whole cell sirtuin activity

Oc1ccc(C=Cc2cc(O)cc(O)c2)cc1 [Resveratrol]
EC50 (recombinant Sirt3; substrate FldSirt2, activation, read-out: EC50 to activate recombinant Sirt3 in vitro): > 2000 µM
EC50 (recombinant Sirt2; substrate FldSirt2, activation, read-out: EC50 to activate recombinant Sirt2 in vitro): 912 µM
activation of recombinant Sirt1 in vitro (recombinant Sirt1): can activate Sirt1 enzymes in vitro in a dose dependent manner
activation of whole cell sirtuin (SirT1) activity (SirT1 (HCT116 cells); HCT116 cells, 1.5 hour pre-incubation): could activate whole cell sirtuin (SirT1) activity in a dose-dependent manner

CC(/C=C/C(=O)NO)=C\[C@@H](C)C(=O)c1ccc(N(C)C)cc1 [TSA, trichostatin A]
inhibition of whole cell HDAC activity (HDAC (HCT116 cells); Boc-Lys(Ac)-AMC 300 uM): could inhibit whole cell HDAC activity
inhibition of recombinant Sirt2 in vitro (recombinant Sirt2): does not inhibit
IC50 (recombinant Sirt2; substrate FldSirt2): > 10 µM
inhibition of recombinant Sirt1 in vitro (recombinant Sirt1): does not inhibit
IC50 (recombinant Sirt1; substrate FldSirt1, 45 minutes, read-out: IC50 against recombinant Sirt1): > 10 µM
inhibition of whole cell SirT1 activity (SirT1 (HCT116 cells); HCT116 cells): not

NC(=O)c1cccnc1 [nicotinamide]
quenching of the whole cell sirtuin reaction (SirT1 (HCT116 cells); HCT116 whole cells): ineffective at quenching the reaction

Cc1ccc(C(=O)Nc2ccc(S(=O)(=O)O)c3cc(S(=O)(=O)O)cc(S(=O)(=O)O)c23)cc1NC(=O)c1cccc(NC(=O)Nc2cccc(C(=O)Nc3cc(C(=O)Nc4ccc(S(=O)(=O)O)c5cc(S(=O)(=O)O)cc(S(=O)(=O)O)c45)ccc3C)c2)c1 [suramin]
inhibition of recombinant SirT3 in vitro (recombinant Sirt3): inhibits
IC50 (recombinant Sirt3; substrate FldSirt2, 45 minutes, read-out: IC50 against recombinant Sirt3): 575 µM
inhibition of recombinant Sirt2 in vitro (recombinant Sirt2): inhibits
IC50 (recombinant Sirt2; substrate FldSirt2): 14 µM
inhibition of recombinant Sirt1 in vitro (recombinant Sirt1): inhibits
inhibition of SirT1 in whole mouse white blood cells [2]: inhibits SirT1 enzymes in whole white blood cells
inhibition of whole cell SirT1 activity (SirT1 (HCT116 cells); HCT116 cells): inihibits whole cell SirT1 activity in a dose-dependent manner

CC(=O)O[C@H]1C(=O)[C@@]2(C)[C@H]([C@H](OC(=O)c3ccccc3)[C@]3(O)C[C@H](OC(=O)[C@H](O)[C@@H](NC(=O)c4ccccc4)c4ccccc4)C(C)=C1C3(C)C)[C@]1(OC(C)=O)CO[C@@H]1C[C@@H]2O [taxol]
effect on HDAC activity in whole cells (HDAC (293T cells)): no effect on HDAC activity
IC50 (HDAC (293T cells)): > 50 µM
